ChEMBL document CHEMBL5131391, “One-pot three-component synthesis of novel pyrazolo[3,4-b]pyridines as potent antileukemic agents” (Eur J Med Chem, 2022)

Test system: K562
Test: Antiproliferative activity against human K562 cells assessed as reduction in cell viability incubated for 72 hrs by resazurin dye based assay
Type: functional
Conditions: K562, 72 h

Row | IC50 | SMILES
1 | > 50 µM | COc1cc(-c2c(C#N)c(-c3ccccc3)nc3c2c(-c2ccccc2)nn3-c2ccccc2)ccc1O

Test system: RPMI-8226
Test: Antiproliferative activity against human RPMI-8226 cells assessed as growth inhibition at 10 uM measured after 48 hrs by NCI protocol based SRB assay relative to control
Type: functional
Conditions: read-out: GI

Row | SMILES | inhibition of growth at 10 µM
2 | COc1cc(-c2c(C#N)c(-c3ccccc3)nc3c2c(-c2ccccc2)nn3-c2ccccc2)ccc1O | 40%

Test system: HOP-92
Test: Antiproliferative activity against human HOP-92 cells assessed as growth inhibition at 10 uM measured after 48 hrs by NCI protocol based SRB assay relative to control
Type: functional
Conditions: read-out: GI

Row | SMILES | inhibition of growth at 10 µM
3 | COc1cc(-c2c(C#N)c(-c3ccccc3)nc3c2c(-c2ccccc2)nn3-c2ccccc2)ccc1O | 22%

Test system: A549
Test: Antiproliferative activity against human A549 cells assessed as growth inhibition at 10 uM measured after 48 hrs by NCI protocol based SRB assay relative to control
Type: functional
Conditions: read-out: GI

Row | SMILES | inhibition of growth at 10 µM
4 | COc1cc(-c2c(C#N)c(-c3ccccc3)nc3c2c(-c2ccccc2)nn3-c2ccccc2)ccc1O | 48%

Test system: EKVX
Test: Antiproliferative activity against human EKVX cells assessed as growth inhibition at 10 uM measured after 48 hrs by NCI protocol based SRB assay relative to control
Type: functional
Conditions: read-out: GI

Row | SMILES | inhibition of growth at 10 µM
5 | COc1cc(-c2c(C#N)c(-c3ccccc3)nc3c2c(-c2ccccc2)nn3-c2ccccc2)ccc1O | 18%

Test system: NCI-H460
Test: Antiproliferative activity against human NCI-H460 cells assessed as growth inhibition at 10 uM measured after 48 hrs by NCI protocol based SRB assay relative to control
Type: functional
Conditions: read-out: GI

Row | SMILES | inhibition of growth at 10 µM
6 | COc1cc(-c2c(C#N)c(-c3ccccc3)nc3c2c(-c2ccccc2)nn3-c2ccccc2)ccc1O | 38%

Test system: NCI-H522
Test: Antiproliferative activity against human NCI-H522 cells assessed as growth inhibition at 10 uM measured after 48 hrs by NCI protocol based SRB assay relative to control
Type: functional
Conditions: read-out: GI

Row | SMILES | inhibition of growth at 10 µM
7 | COc1cc(-c2c(C#N)c(-c3ccccc3)nc3c2c(-c2ccccc2)nn3-c2ccccc2)ccc1O | 47%

Test system: NCI-H322M
Test: Antiproliferative activity against human NCI-H322M cells assessed as growth inhibition at 10 uM measured after 48 hrs by NCI protocol based SRB assay relative to control
Type: functional
Conditions: read-out: GI

Row | SMILES | inhibition of growth at 10 µM
8 | COc1cc(-c2c(C#N)c(-c3ccccc3)nc3c2c(-c2ccccc2)nn3-c2ccccc2)ccc1O | 17%

Test system: NCI-H23
Test: Antiproliferative activity against human NCI-H23 cells assessed as growth inhibition at 10 uM measured after 48 hrs by NCI protocol based SRB assay relative to control
Type: functional
Conditions: read-out: GI

Row | SMILES | inhibition of growth at 10 µM
9 | COc1cc(-c2c(C#N)c(-c3ccccc3)nc3c2c(-c2ccccc2)nn3-c2ccccc2)ccc1O | 26%

Test system: HCT-15
Test: Antiproliferative activity against human HCT-15 cells assessed as growth inhibition at 10 uM measured after 48 hrs by NCI protocol based SRB assay relative to control
Type: functional
Conditions: read-out: GI

Row | SMILES | inhibition of growth at 10 µM
10 | COc1cc(-c2c(C#N)c(-c3ccccc3)nc3c2c(-c2ccccc2)nn3-c2ccccc2)ccc1O | 30%

Test system: SW-620
Test: Antiproliferative activity against human SW-620 cells assessed as growth inhibition at 10 uM measured after 48 hrs by NCI protocol based SRB assay relative to control
Type: functional
Conditions: read-out: GI

Row | SMILES | inhibition of growth at 10 µM
11 | COc1cc(-c2c(C#N)c(-c3ccccc3)nc3c2c(-c2ccccc2)nn3-c2ccccc2)ccc1O | 22%

Test system: SF-268
Test: Antiproliferative activity against human SF-268 cells assessed as growth inhibition at 10 uM measured after 48 hrs by NCI protocol based SRB assay relative to control
Type: functional
Conditions: read-out: GI

Row | SMILES | inhibition of growth at 10 µM
12 | COc1cc(-c2c(C#N)c(-c3ccccc3)nc3c2c(-c2ccccc2)nn3-c2ccccc2)ccc1O | 27%

Test system: SNB-75
Test: Antiproliferative activity against human SNB-75 cells assessed as growth inhibition at 10 uM measured after 48 hrs by NCI protocol based SRB assay relative to control
Type: functional
Conditions: read-out: GI

Row | SMILES | inhibition of growth at 10 µM
13 | COc1cc(-c2c(C#N)c(-c3ccccc3)nc3c2c(-c2ccccc2)nn3-c2ccccc2)ccc1O | 20%

Test system: SNB-19
Test: Antiproliferative activity against human SNB-19 cells assessed as growth inhibition at 10 uM measured after 48 hrs by NCI protocol based SRB assay relative to control
Type: functional
Conditions: read-out: GI

Row | SMILES | inhibition of growth at 10 µM
14 | COc1cc(-c2c(C#N)c(-c3ccccc3)nc3c2c(-c2ccccc2)nn3-c2ccccc2)ccc1O | 24%

Test system: U-251
Test: Antiproliferative activity against human U-251 cells assessed as growth inhibition at 10 uM measured after 48 hrs by NCI protocol based SRB assay relative to control
Type: functional
Conditions: read-out: GI

Row | SMILES | inhibition of growth at 10 µM
15 | COc1cc(-c2c(C#N)c(-c3ccccc3)nc3c2c(-c2ccccc2)nn3-c2ccccc2)ccc1O | 31%

Test system: M14
Test: Antiproliferative activity against human M14 cells assessed as growth inhibition at 10 uM measured after 48 hrs by NCI protocol based SRB assay relative to control
Type: functional
Conditions: read-out: GI

Row | SMILES | inhibition of growth at 10 µM
16 | COc1cc(-c2c(C#N)c(-c3ccccc3)nc3c2c(-c2ccccc2)nn3-c2ccccc2)ccc1O | 19%

Test system: SK-MEL-5
Test: Antiproliferative activity against human SK-MEL-5 cells assessed as growth inhibition at 10 uM measured after 48 hrs by NCI protocol based SRB assay relative to control
Type: functional
Conditions: read-out: GI

Row | SMILES | inhibition of growth at 10 µM
17 | COc1cc(-c2c(C#N)c(-c3ccccc3)nc3c2c(-c2ccccc2)nn3-c2ccccc2)ccc1O | 21%

Test system: SK-MEL-28
Test: Antiproliferative activity against human SK-MEL-28 cells assessed as growth inhibition at 10 uM measured after 48 hrs by NCI protocol based SRB assay relative to control
Type: functional
Conditions: read-out: GI

Row | SMILES | inhibition of growth at 10 µM
18 | COc1cc(-c2c(C#N)c(-c3ccccc3)nc3c2c(-c2ccccc2)nn3-c2ccccc2)ccc1O | 19%

Test system: UACC-62
Test: Antiproliferative activity against human UACC-62 cells assessed as growth inhibition at 10 uM measured after 48 hrs by NCI protocol based SRB assay relative to control
Type: functional
Conditions: read-out: GI

Row | SMILES | inhibition of growth at 10 µM
19 | COc1cc(-c2c(C#N)c(-c3ccccc3)nc3c2c(-c2ccccc2)nn3-c2ccccc2)ccc1O | 12%

Test system: OVCAR-8
Test: Antiproliferative activity against human OVCAR-8 cells assessed as growth inhibition at 10 uM measured after 48 hrs by NCI protocol based SRB assay relative to control
Type: functional
Conditions: read-out: GI

Row | SMILES | inhibition of growth at 10 µM
20 | COc1cc(-c2c(C#N)c(-c3ccccc3)nc3c2c(-c2ccccc2)nn3-c2ccccc2)ccc1O | 28%

Test system: NCI/ADR-RES
Test: Antiproliferative activity against human NCl/ADR-RES cells assessed as growth inhibition at 10 uM measured after 48 hrs by NCI protocol based SRB assay relative to control
Type: functional
Conditions: read-out: GI

Row | SMILES | inhibition of growth at 10 µM
21 | COc1cc(-c2c(C#N)c(-c3ccccc3)nc3c2c(-c2ccccc2)nn3-c2ccccc2)ccc1O | 22%

Test system: 786-0
Test: Antiproliferative activity against human 786-0 cells assessed as growth inhibition at 10 uM measured after 48 hrs by NCI protocol based SRB assay relative to control
Type: functional
Conditions: read-out: GI

Row | SMILES | inhibition of growth at 10 µM
22 | COc1cc(-c2c(C#N)c(-c3ccccc3)nc3c2c(-c2ccccc2)nn3-c2ccccc2)ccc1O | 24%

Test system: CAKI-1
Test: Antiproliferative activity against human CAKI-1 cells assessed as growth inhibition at 10 uM measured after 48 hrs by NCI protocol based SRB assay relative to control
Type: functional
Conditions: read-out: GI

Row | SMILES | inhibition of growth at 10 µM
23 | COc1cc(-c2c(C#N)c(-c3ccccc3)nc3c2c(-c2ccccc2)nn3-c2ccccc2)ccc1O | 37%

Test system: UO-31
Test: Antiproliferative activity against human UO-31 cells assessed as growth inhibition at 10 uM measured after 48 hrs by NCI protocol based SRB assay relative to control
Type: functional
Conditions: read-out: GI

Row | SMILES | inhibition of growth at 10 µM
24 | COc1cc(-c2c(C#N)c(-c3ccccc3)nc3c2c(-c2ccccc2)nn3-c2ccccc2)ccc1O | 32%

Test system: PC-3
Test: Antiproliferative activity against human PC-3 cells assessed as growth inhibition at 10 uM measured after 48 hrs by NCI protocol based SRB assay relative to control
Type: functional
Conditions: read-out: GI

Row | SMILES | inhibition of growth at 10 µM
25 | COc1cc(-c2c(C#N)c(-c3ccccc3)nc3c2c(-c2ccccc2)nn3-c2ccccc2)ccc1O | 49%

Test system: DU-145
Test: Antiproliferative activity against human DU-145 cells assessed as growth inhibition at 10 uM measured after 48 hrs by NCI protocol based SRB assay relative to control
Type: functional
Conditions: read-out: GI

Row | SMILES | inhibition of growth at 10 µM
26 | COc1cc(-c2c(C#N)c(-c3ccccc3)nc3c2c(-c2ccccc2)nn3-c2ccccc2)ccc1O | 25%

Test system: MDA-MB-231
Test: Antiproliferative activity against human MDA-MB-231 cells assessed as growth inhibition at 10 uM measured after 48 hrs by NCI protocol based SRB assay relative to control
Type: functional
Conditions: read-out: GI

Row | SMILES | inhibition of growth at 10 µM
27 | COc1cc(-c2c(C#N)c(-c3ccccc3)nc3c2c(-c2ccccc2)nn3-c2ccccc2)ccc1O | 28%

Test system: MCF7
Test: Antiproliferative activity against human MCF7 cells assessed as growth inhibition at 10 uM measured after 48 hrs by NCI protocol based SRB assay relative to control
Type: functional
Conditions: read-out: GI

Row | SMILES | inhibition of growth at 10 µM
28 | COc1cc(-c2c(C#N)c(-c3ccccc3)nc3c2c(-c2ccccc2)nn3-c2ccccc2)ccc1O | 53%

Test system: T47D
Test: Antiproliferative activity against human T47D cells assessed as growth inhibition at 10 uM measured after 48 hrs by NCI protocol based SRB assay relative to control
Type: functional
Conditions: read-out: GI

Row | SMILES | inhibition of growth at 10 µM
29 | COc1cc(-c2c(C#N)c(-c3ccccc3)nc3c2c(-c2ccccc2)nn3-c2ccccc2)ccc1O | 39%

Test system: Hs-578T
Test: Antiproliferative activity against human Hs-578T cells assessed as growth inhibition at 10 uM measured after 48 hrs by NCI protocol based SRB assay relative to control
Type: functional
Conditions: read-out: GI

Row | SMILES | inhibition of growth at 10 µM
30 | COc1cc(-c2c(C#N)c(-c3ccccc3)nc3c2c(-c2ccccc2)nn3-c2ccccc2)ccc1O | 32%

Test system: MV4-11
Test: Antiproliferative activity against human MV4-11 cells assessed as reduction in cell viability incubated for 72 hrs by resazurin dye based assay
Type: functional
Conditions: MV4-11, 72 h

Row | IC50 | SMILES
31 | > 50 µM | COc1cc(-c2c(C#N)c(-c3ccccc3)nc3c2c(-c2ccccc2)nn3-c2ccccc2)ccc1O
